The text below walks through data of the NIST ThermoML archive (doi:10.1016/j.jct.2012.05.021).

± gives the expanded uncertainty stated by the source.

The conditions of this series: Crystal; visual observation.

For the molecule `CC(C)NCC(O)COc1ccc(CC(N)=O)cc1` (configuration not stated) [2-(4-(2-hydroxy-3-(isopropylamino)propoxy)phenyl)acetamide], the Normal melting temperature amounted to 154.50 ± 0.4 °C. Next, `CC(C)NCC(O)COc1cccc2ccccc12.Cl` (configuration not stated) [propranolol hydrochloride]: 164.80 ± 0.4 °C.
